According to PubChem BioAssay (NCI):
Values joined by “and” are separate entries in the source; they are usually repeats but may differ in a detail not shown here. Equal entries are not always repeated.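 Method: 48-hour compound exposure of cells in 96-well plates, five concentrations, linear interpolation of endpoints. The concentration for 50% growth inhibition is given as GI50. At the TGI there is no net growth.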

Experiments:
Experiment in all cases: inhibition of tumour cell growth, NCI panel, 48 h
A549 NSCLC = test system: A549 NSCLC
ACHN renal = test system: ACHN renal
CCRF-CEM leukemia = test system: CCRF-CEM leukemia
EKVX NSCLC = test system: EKVX NSCLC
LOX IMVI melanoma = test system: LOX IMVI melanoma
MDA-MB-231 breast = test system: MDA-MB-231 breast
NCI-H23 lung = test system: NCI-H23 lung
NCI/ADR-RES ovarian = test system: NCI/ADR-RES ovarian
SK-MEL-5 melanoma = test system: SK-MEL-5 melanoma
SR leukemia = test system: SR leukemia

| Compound | TGI (A549 NSCLC) [µM] | TGI (ACHN renal) [µM] | TGI (CCRF-CEM leukemia) [µM] | TGI (EKVX NSCLC) [µM] | TGI (LOX IMVI melanoma) [µM] | TGI (MDA-MB-231 breast) [µM] | TGI (NCI-H23 lung) [µM] | TGI (NCI/ADR-RES ovarian) [µM] | TGI (SK-MEL-5 melanoma) [µM] | TGI (SR leukemia) [µM] | GI50 (A549 NSCLC) | GI50 (CCRF-CEM leukemia) | GI50 (LOX IMVI melanoma) | GI50 (MDA-MB-231 breast) | GI50 (SK-MEL-5 melanoma) | GI50 (SR leukemia) | GI50 (ACHN renal) [µM] | GI50 (EKVX NSCLC) [µM] | GI50 (NCI-H23 lung) [µM] | GI50 (NCI/ADR-RES ovarian) [µM] |
| --- | --- | --- | --- | --- | --- | --- | --- | --- | --- | --- | --- | --- | --- | --- | --- | --- | --- | --- | --- | --- |
| N#C/C=C(/NC(=O)Nc1ccccc1)N1CCCC1 | > 61.3 | > 57.3 | > 100 | > 97 | 97.4 | > 100 | > 64.7 | > 61.5 | > 100 | > 100 | – | – | – | – | – | – | – | – | – | – |
| CC(C)(C)OC(=O)C1C(=O)NC(=O)CC1C(OCc1ccccc1)C(OCc1ccccc1)C(COCc1ccccc1)OCc1ccccc1 (stereo not given) | > 100 | > 100 | > 100 | > 100 | > 100 | > 100 | > 100 | > 100 | > 100 | > 100 | > 100 µM and 26.9 µM | > 100 µM and 49.1 µM | > 100 µM and 41.8 µM | > 100 µM and 40.5 µM | > 100 µM and 28.4 µM | > 100 µM and 35.1 µM | – | – | – | – |
| C[C@]12CCC(=O)C=C1CC[C@@H]1[C@@H]2CC[C@]2(C)C(=O)/C(=C/c3ccc([N+](=O)[O-])cc3)C[C@@H]12 | > 100 | 19.9 | > 100 | > 100 | > 100 | > 100 | > 100 | > 100 | > 100 | > 100 | – | – | – | – | – | – | – | – | – | – |
| O=[N+]([O-])C1=Cc2c(O)ccc(O)c2C2OC=CC12 (stereo not given) | 43.4 | 29.1 | > 26.8 | 36.8 | 42.6 | 40.1 | 32.4 | 55.9 | 26.2 | > 74.5 | – | – | – | – | – | – | – | – | – | – |
| Nc1nc(N)c2cc(-c3cc4ccccc4[nH]3)ccc2n1 | > 100 | 33.3 | > 100 | 95 | 36.3 | 39.3 | > 100 | > 100 | 30.2 | 60.5 | – | – | – | – | – | – | – | – | – | – |
| CC(=O)N1N=C(c2ccccc2)NC(=O)C1c1cc(C)c(O)c(C)c1 (stereo not given) | 66.1 | 44 | > 100 | 93.6 | > 100 | 46.3 | 64.1 | 47.7 | 56.4 | > 100 | – | – | – | – | – | – | – | – | – | – |
| COP(=O)(OC)[C@@](O)(c1ccccc1)[C@@H](O)[C@H](O)c1ccccc1 | > 100 | > 100 | 41.6 | > 100 | 56.4 | > 100 | > 100 | > 100 | > 100 | > 100 | – | – | – | – | – | – | – | – | – | – |
| CCOP(=O)(OCC)/C(C#N)=C/c1nc[nH]c1C | > 100 | > 100 | > 100 | > 100 | > 100 | > 100 | > 100 | > 100 | > 100 | > 100 | – | – | – | – | – | – | – | – | – | – |
| COC(=O)C12CCCN1CCC2 | > 100 | > 100 | > 100 | > 100 | > 100 | > 100 | > 100 | > 100 | > 100 | > 100 | – | – | – | – | – | – | – | – | – | – |
| Cc1ccc2[nH]c3c(c2c1)C1CCC(C(C)(C)C)CC1C1C(=O)N(c2ccc(Oc4ccccc4)cc2)C(=O)C31 (stereo not given) | > 100 | > 100 | 8.26 | > 100 | > 100 | > 100 | 58.9 | > 100 | > 100 | 3.07 | – | – | – | – | – | – | – | – | – | – |
| COc1ccc(OC)c([N+](=O)[O-])c1-c1nc2sc(Cl)cn2c1/C=N/N=C(N)N | 58.3 | 86.3 | > 100 | 57 | > 100 | 35.7 | 60.7 | > 100 | 32.3 | 34.7 | – | – | – | – | – | – | – | – | – | – |
| CC1=C[C@H](C[C@]2(C)c3c(c4c(C)cccc4oc3=O)O[C@@H]2C)OC1=O | > 100 | > 100 | 74.7 | > 100 | > 100 | > 100 | > 100 | > 100 | > 100 | 61.3 | – | – | – | – | – | – | – | – | – | – |
| CCN(CC)C1=Nc2ccccc2-n2ccnc2C1 | > 100 | > 100 | > 100 | > 100 | > 100 | > 100 | > 100 | > 100 | > 100 | > 100 | – | – | – | – | – | – | – | – | – | – |
| Cc1cccc(-c2cc(=O)c3cccnc3[nH]2)c1 | > 100 | > 100 | > 100 | 87.2 | > 100 | > 100 | > 100 | > 100 | 52.3 | > 100 | – | – | – | – | – | – | – | – | – | – |
| COc1ccc(Nc2nc3ccccc3nc2-c2cccs2)cc1OC | > 10 | > 10 | > 10 | > 10 | > 10 | > 10 | > 10 | > 10 | > 10 | > 10 | – | – | – | – | – | – | – | – | – | – |
| COC(=O)c1sc2nc(Nc3ccccc3)c(=Nc3ccccc3)sc2c1C | > 100 | > 100 | > 100 | > 100 | > 100 | > 100 | > 100 | > 100 | > 100 | > 100 | – | – | – | – | – | – | – | – | – | – |
| O=C1C(NS(=O)(=O)c2ccccc2)=C(n2ccnc2)C(=O)c2ccccc21 | > 100 | > 100 | > 100 | > 100 | > 100 | > 100 | > 100 | > 100 | > 100 | > 100 | – | – | – | – | – | – | – | – | – | – |
| COc1cc2ncnc(Nc3cccc(Br)c3)c2cc1OC | > 69.1 | > 100 | > 89.8 | 31.9 | 10.2 | 21.5 | 28.7 | 23.9 | 5.67 | > 31.6 | – | – | – | – | – | – | – | – | – | – |
| COc1cc2c(c3nc4ccccc4nc13)-c1ccc(SC)c(=O)cc1[C@@H](NC(C)=O)CC2 | > 100 | > 100 | > 100 | 0.795 | > 100 | > 100 | 0.066 | 53 | > 100 | > 100 | – | – | – | – | – | – | – | – | – | – |
| C[N+](C)(N)Cc1nc(-c2ccc(Cl)cc2)no1 | > 100 | > 100 | > 100 | > 100 | > 100 | > 100 | > 100 | > 100 | > 100 | > 100 | – | – | – | – | – | – | – | – | – | – |
| CCCCOC(=O)Nc1ccc(S(=O)(=O)Nc2c(Cl)cccc2Cl)cc1 | > 100 | > 100 | > 100 | 71.6 | > 100 | 67.2 | > 100 | 65.8 | 28 | 48.7 | – | – | – | – | – | – | – | – | – | – |
| COC(=O)C12C(=O)CC3CCC1C32C(=O)OC (stereo not given) | > 100 | > 100 | > 100 | > 100 | > 100 | > 100 | > 100 | > 100 | > 100 | > 100 | – | – | – | – | – | – | – | – | – | – |
| O=C1c2cccnc2S(=O)(=O)N1c1ccc(Br)cc1 | > 100 | – | > 100 | > 100 | > 100 | > 100 | > 100 | > 100 | > 100 | > 100 | – | – | – | – | – | – | – | – | – | – |
| CCN1CC2=C(OC(N)=C(C#N)C2c2ccc(Cl)cc2)/C(=C/c2ccc(Cl)cc2)C1 (stereo not given) | 49.1 | 45.9 | > 100 | > 100 | > 100 | 69.2 | 68.7 | > 100 | > 100 | > 100 | – | – | – | – | – | – | – | – | – | – |
| COc1ccc(C2c3cc4c(cc3OC(N3CCOCC3)C2C)OCO4)cc1OC (stereo not given) | > 85 | > 100 | 62.5 | > 100 | > 93.7 | > 100 | > 89.6 | 25.7 | > 100 | > 100 | – | – | – | – | – | – | – | – | – | – |
| COc1ccccc1C1C(C#N)=C(N)SC(N)=C1C#N | > 100 | > 100 | 70.4 | > 100 | > 100 | 60.7 | > 100 | > 100 | > 100 | 83 | > 100 µM | 26.6 µM | 50.2 µM | 21.6 µM | 90.5 µM | 16.3 µM | 65.1 | > 100 | 97 | 43.9 |
| O=C(O)CSC1=NCCN1 | > 100 | > 100 | > 100 | > 100 | > 100 | > 100 | > 100 | > 100 | > 100 | > 100 | – | – | – | – | – | – | – | – | – | – |
| O=C(CSc1nc2ccccc2c(=O)n1-c1ccccc1)N=Nc1c(O)[nH]c2ccc(Br)cc12 | 10.9 | > 94.5 | > 100 | 9.83 | > 31.5 | 3.58 | 10.8 | 22.9 | > 20.6 | > 26.6 | – | – | – | – | – | – | – | – | – | – |
| CN1CCN(c2n[nH]c(=O)c3c2nnn3Cc2ccccc2)CC1 | > 100 | > 100 | > 100 | > 100 | > 100 | > 100 | > 100 | > 100 | > 100 | > 100 | – | – | – | – | – | – | – | – | – | – |
